Measurements published in publication PMC10117637 (Frontiers in Pharmacology, 2023).

Columns and labels:
Caco-2 cells = assay: Cell viability assay (MTT), nontoxic concentration; type: cell-based, human; details: 48 h
Experimental: The cytotoxicity of EDM and DEDM was assessed in Caco-2 cells using the aforementioned MTT test. These alkaloids were produced as solutions in DMSO and then diluted in cell culture media. Inoculating Caco-2 cells (1 × 10^4cells/well) in 96-well plates with 200 μL of media. After additional 48 h of incubation with EDM and DEDM (final test alkaloids concentrations ranged from 0.4 to 200 μM, and DMSO was less than 0.05%), the medium was discarded. To each well, an aliquot of 190 μL freshly prepared DMEM (serum-free) having 10.0 μL MTT (5 mg/mL) was added. The medium in every well was then removed from the plate after a further 4 h at 37°C of incubation. In 100 μL of DMSO, the purple formazan product was dissolved. Using a microplate reader, the ratio of absorbance (treated to untreated cells) at 490 nm was employed to measure cell viability.

in vitro = details: human, Caco-2, pH 7.4
Experimental: (§1) The Center of Cellular Resources at the Chinese Academy of Sciences (Shanghai, China) provided the human colon adenocarcinoma cell line Caco-2, and the experiment utilized 15–30 generations of these cells. DMEM enriched with 15% FBS, 1% non-essential amino acids, 1% Penicillin-Streptomycin Solution (×100), and 1% sodium pyruvate was utilized to cultivate cells at 37°C in a humidified atmosphere of 5% CO2. The cells were separated from flasks when they achieved the anticipated confluence threshold (70%–80%), and they were then inoculated in 12-well plates at a density of 2–5 × 10^5 cells/cm^2 in a polycarbonate Transwell® (pore size: 0.4 µm; filter area: 1.12 cm^2). In the first week, the culture media was switched every 2 days.
(§2) Caco-2 monolayers were pre-cultured in HBSS for 15 min at 37°C after being rinsed two times with preheated Hanks' balanced salt solution (HBSS, pH = 7.4). The donor side was supplemented with DEDM (25, 50, and 100 μM) and EDM (2.5, 5, and 10 μM), and the receiver chamber was filled with the corresponding volume of HBSS medium. For 120 min, the plate was incubated at 37°C. At 0, 30, 45, 60, 90, and 120 min, a 0.5 mL aliquot of each receiver chamber’s sample was taken, and 0.5 mL of HBSS was added to keep the volume constant. By using high-performance liquid chromatography (HPLC), the samples were examined. The sample (300 μL) taken from the receiver chamber was mixed with 300 μL of acetonitrile, and the combination was centrifuged for 10 min at 13,000 rpm. Lastly, a 100 µL aliquot of the supernatant was injected into the HPLC for examination.
(§3) Two drugs were quantitatively determined using an Agilent 1,260 HPLC apparatus (United States). A C18 column (1.8 μm, 3.0 × 150 mm; Agilent Technologies, Santa Clara, CA, United States) was used for the separation, with a column temperature of 25°C. The mobile phase comprised both A (water) and B (acetonitrile). The ratio between A and B was 70: 30 with a flow rate of 1 mL per minute. For EDM or DEDM, 20 μL samples were injected and analyzed at 290 nm or 344 nm, respectively. Acetonitrile was used to create the standard stock solutions for EDM and DEDM, respectively. By serially diluting standard stock solutions with HBSS, working solutions were made. The effective concentrations were 0.04–2.5 μg/mL for EDM and 0.23–7.5 μg/mL for DEDM, respectively. These samples were stored at 4°C before being used.
(§4) Eqs 1, 2 were used to determine the apparent permeability coefficients (Papp) and efflux ratio (ER) of marker drugs: Papp=dQ/dtC0A (1) where dQ/dt is the cumulative transport rate (M/min), C0 is the initial concentration of each marker drug, and A is the surface area of the filters. ER=PappBL−AP/PappAP−BL (2)
(§5) Data for transport experiments are presented as the mean ± SD of six independent experiments.

Caco-2 cell monolayers [1] = assay: Caco-2 cell transport assay (Papp, efflux ratio); details: Caco-2 monolayers
Experimental: as §1, §2, §3, §4, §5

[2] = Tissue distribution and PK after tail vein injection; type: in vivo, mice
Experimental: The mixture was then transferred to a sterile centrifuge tube after being repeatedly ground for 30 min with a tiny amount of ordinary saline added. After that, saline was added and ultrasonically processed for 1 h. In a vacuum freeze drier, the suspension was freeze-dried for 30 h. To make the injection, the freeze-dried powder was ultimately redissolved in regular saline. After acclimatization, all mice were acclimated before being randomly placed into four groups of three each: EDM (H) group, EDM (L) group, DEDM (H) group, DEDM (L) group. […] Supernatant plasma from the collected sample was transferred into another tube and kept at −80°C until analysis after being centrifuged at 3,000 rpm for 10 min. Immediately after blood was obtained, the mice were dissected. Saline was injected into the heart until the liver turned white. […] The calibration standards, tissue samples, and plasma samples were pretreated with acetonitrile for protein precipitation. […] To remove the denatured protein, the mixture was vortexed for 1 min and then centrifuged at 16,500 rpm for 10 min. The supernatant was finally injected into the LC-MS/MS in an aliquot of 100 µL for analysis. […] Using an isocratic elution, the EDM and DEDM were analyzed. […] With a flow rate of 0.3 mL/min, the ratio between A and B was 20: 80 for 4 min. The column temperature was kept at 35°C. Prior to injection, samples were transferred in an auto-sampler at a temperature of 4°C and 5 µL was the injection volume. […] The ion source was electrospray ionization (ESI) and adopts positive ion mode. The scan mode was multiple reaction monitoring (MRM). The operating conditions for the EDM and DEDM were 4000 V capillary voltage. […] Acetonitrile was used to prepare standard stock solutions for each type of EDM and DEDM individually. By diluting the standard stock solutions serially with acetonitrile, working standards for the EDM and DEDM were made. The calibration curve samples were acquired by spiking the series working standard solutions (10 μL) into a tube and evaporating the solvent, and then adding blank mouse tissue homogenate or plasma (100 μL). […] DEDM is used as an internal standard compound when detecting EDM. Meanwhile, when DEDM is detected, EDM is used as the internal standard compound. The final concentration of the internal standard compound is 10 ng/mL. […] For the Non-compartmental PK analysis, Thermo Kinetica (Version 5.0, Thermo Electron Corporation, Waltham, MA) was employed. Based on observed data, the time when the maximum tissue concentration was reached (Tmax) and the maximum tissue concentration (Cmax) were assessed. […] Additionally, the mean residence time (MRT) was computed. PK parameters are reported as the mean of […]. Linear and non-linear regressions were analyzed in Microsoft Excel 2016® (United States).

[3] = parameters: method as in Lin et al., 2012; details: ref Lin et al., 2012; cited from earlier work
Caco-2 cell monolayers [4] = details: pH 7.4
Experimental: as §1, §2, §3, §4, §5

Row | Papp at 120 min (in vitro) [×10⁻⁶ cm/s] | SMILES | Nontoxic concentration (Caco-2 cells; human) [µM] | bidirectional transport comparison, secretory (basolateral→apical) vs absorptive (apical→basolateral) permeability (Caco-2 cell monolayers [1]) | AUC0-t ([2]; Kindy, 10 mg/kg tail vein, mice, average) [µg·h/g] | time to maximum plasma concentration (Cmax) ([2]; mouse, in vivo) [min] | Tmax ([2]; mouse, in vivo, iv, 5 mg/kg) [min] | Tmax ([2]; mouse, in vivo, iv, 10 mg/kg, Tmax) [min] | half-life ([2]; mouse, in vivo, iv, Lung, 5 mg/kg tail vein, mice, average) [min] | Tmax ([2]; mouse, in vivo, time to peak concentration in different tissues) [min] | oral bioavailability [3] [%] | permeability class (Caco-2 cell monolayers [1]; from Papp level) | Nontoxic concentration (Caco-2 cells; Caco-2 cells, MTT) [µM] | Papp (Caco-2 cell monolayers [4]) [×10⁻⁶ cm/s]
1 | ≥ 1 | O=c1c2ccccc2nc2n1CCc1c-2[nH]c2ccccc12 [RUP, rutaecarpine] | 100 | more than twice as high in the secretory direction |  |  |  |  |  |  |  |  |  | 
2 | ~10 | COc1ccc2c(OC)c3ccoc3nc2c1 [EVT, evolitrine] | 100 | nearly comparable |  |  |  |  |  |  |  |  |  | 
3 |  | O=c1c2cccc(O)c2nc2n1CCc1c-2[nH]c2ccccc12 [1-HRUP, 1-hydroxyrutaecarpine] |  | nearly comparable |  |  |  |  |  |  |  |  | 100 | ≥ 1

Row | SMILES | Papp at 120 min (in vitro) [×10⁻⁶ cm/s] | Nontoxic concentration (Caco-2 cells; human) [µM] | bidirectional transport comparison, secretory (basolateral→apical) vs absorptive (apical→basolateral) permeability (Caco-2 cell monolayers [1]) | AUC0-t ([2]; Kindy, 10 mg/kg tail vein, mice, average) [µg·h/g] | time to maximum plasma concentration (Cmax) ([2]; mouse, in vivo) [min] | Tmax ([2]; mouse, in vivo, iv, 5 mg/kg) [min] | Tmax ([2]; mouse, in vivo, iv, 10 mg/kg, Tmax) [min] | half-life ([2]; mouse, in vivo, iv, Lung, 5 mg/kg tail vein, mice, average) [min] | Tmax ([2]; mouse, in vivo, time to peak concentration in different tissues) [min] | oral bioavailability [3] [%] | permeability class (Caco-2 cell monolayers [1]; from Papp level) | Nontoxic concentration (Caco-2 cells; Caco-2 cells, MTT) [µM] | Papp (Caco-2 cell monolayers [4]) [×10⁻⁶ cm/s]
4 | C[n+]1c2n(c(=O)c3ccccc31)CCc1c-2[nH]c2ccccc12 [dehydroevodiamine] | 10 | 100 | nearly comparable | 1.87 | ≤ 15 | 45 | 15 | 107 | 15 | 15.35 | high permeability |  | 
